The target in assay [1] is T1, human transthyretin (TTR) (Homo sapiens, UniProt P02766). As to the kind of experiment: FITC-T4 TTR-binding assay, initial (original) method. As to the method: (§1) All incubations were performed at room temperature.
(§2) Fluorescence enhancement was determined for each well by subtracting its relative fluorescence units (RFU) before TTR addition from its RFUs after TTR addition. The resulting values were normalized to percentages of the vehicle control. A concentration–response curve was fitted through the data using the same model as in the reporter gene assays.
After 15 min of incubation, fluorescence was measured and fluorescence enhancement was calculated by subtracting RFU without TTR from RFU with TTR. Further data analysis was similar to the screening assays.

In assay [2] the target is T1, human transthyretin (TTR). As to the kind of experiment: FITC-T4 TTR-binding assay, screening method. As to the method:
as §1
In the screening tests, 48 μl of Tris-HCl buffer (pH 8.0) was added to each well of black low-binding 96-well plates. Two microliters of each test compound dissolved in their respective solvent was added to each well and the plate was shaken at 600 rpm for 5 min. […] Fluorescence was measured again to check for possible autofluorescence or quenching by the test compound.
as §2

The mark [3] stands for this setting: initial method, 110 nM FITC-T4, 30 nM TTR.
[4] abbreviates: initial method, 110 nM FITC-T4, 30 nM TTR, read-out: IC50 competing with FITC-T4 for binding to TTR.
The mark [5] stands for this setting: screening method, read-out: IC50 TTR-binding assay, Screening Method.

SMILES strings stand for the structures. pIC50: −log10 of the molar value.

Here are results for three molecules from paper PMC11589101, “Profiling the endocrine-disrupting properties of triazines, triazoles, and short-chain PFAS” (Toxicological Sciences, 2024).

The pIC50 is −log10 of the IC50, conventionally taken in molar units.

For `O=S(=O)(O)C(F)(F)C(F)(F)C(F)(F)C(F)(F)C(F)(F)C(F)(F)F` [PFHxS, Perfluorohexane sulfonic acid], the pIC50 was 6.57 in assay [1] and 6.62 in assay [2]. For the same molecule, the “% FITCT4 bound to TTR” value came to 74.2951% in assay [1] (0.1 uM); 47.4669% in assay [1] (0.3 uM); 17.2866% in assay [1] (1 uM); 8.444% in assay [1] (3 uM); 4.647% in assay [1] (10 uM); 2.41% in assay [1] (30 uM). In addition, the “% FITCT4 bound to TTR” value in assay [1] (100 uM) is 0.6647%. The “IC10 competing with FITC-T4 for binding to TTR” value (“IC10 competing with FITC-T4” below) in assay [1] (setting [3]) is 34 nM.
As for `O=C(O)C(F)(F)C(F)(F)C(F)(F)C(F)(F)C(F)(F)C(F)(F)C(F)(F)F` [PFOA, Perfluorooactanoic acid], the “% FITCT4 bound to TTR” value amounted to 82.1607% in assay [1] (0.1 uM); 45.526% in assay [1] (0.3 uM); 17.6477% in assay [1] (1 uM); 6.188% in assay [1] (3 uM); 2.364% in assay [1] (10 uM); 0.3274% in assay [1] (30 uM). Besides, the “% FITCT4 bound to TTR” value in assay [1] (100 uM) is on record as 0.2557%. The “IC10 competing with FITC-T4” value in assay [1] (setting [3]) came out at 53 nM. Moreover, the negative-log IC50 (pIC50) in assay [1] (setting [4]) and in assay [2] (setting [5]) was 6.55 in each case.
For the molecule `O=S(=O)(O)C(F)(F)C(F)(F)C(F)(F)C(F)(F)C(F)(F)C(F)(F)C(F)(F)C(F)(F)F` [PFOS, Perfluorooctane sulfonic acid], the “% FITCT4 bound to TTR” value turned out to be 75.2122% in assay [1] (0.1 uM); 36.6572% in assay [1] (0.3 uM); 10.1163% in assay [1] (1 uM); 2.093% in assay [1] (3 uM); 0.8236% in assay [1] (10 uM); 1.548% in assay [1] (30 uM). In addition, in assay [1] (100 uM), the “% FITCT4 bound to TTR” value is given as -1.121%. In assay [1] (setting [3]), the “IC10 competing with FITC-T4” value is 47 nM. Besides, the pIC50 in assay [1] (setting [4]) is 6.68; in assay [2] (setting [5]) it was 6.72.
